Measurements from patent publication US20060069132A1, “Azolecarboxamide herbicides” (priority 2004, published 2006).

Tests used:
rice [1] = experiment: Test C flooded paddy test; format: in vivo, Oryza sativa
Summary of the method: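 Plants were grown to the 1- to 4-leaf stage (2–18 cm) and then treated postemergence, or grown to the 2-leaf stage for the flooded paddy test. They were held in a greenhouse for 12 to 14 days and then scored by eye against controls, where 0 is no effect and 100 is complete control.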

[2] = tested on: smallflower umbrella sedge; experiment: Test C flooded paddy test; format: in vivo, Cyperus difformis
barnyardgrass [3] = experiment: Test C flooded paddy test; format: in vivo, Echinochloa crus-galli
Summary of the method: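 Scoring by eye, 12–14 days post-treatment, greenhouse-held plants vs. controls; 0 no effect, 100 complete control. Sprayed at 1–4 leaves (2–18 cm); paddy barnyardgrass at 2 leaves, flooded.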

wild oat = experiment: Test B postemergence herbicide test; format: in vivo, Avena fatua; conditions: postemergence, visual rating, scale 0 (no effect) to 100 (complete control)
Summary of the method: (§1)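 Scale 0–100: zero equals no visible effect, 100 complete control, judged by eye relative to controls. Timing: 13 to 15 days in greenhouse post-treatment. Growth stage at spraying: two leaves (paddy) or one to four leaves, 2–18 cm (postemergence).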

wheat = experiment: Test B postemergence herbicide test; format: in vivo, Triticum aestivum; parameters: key to Wheat plant response rating: 0 = no effect, 100 = complete control; conditions: postemergence, visual rating, scale 0 (no effect) to 100 (complete control)
Summary of the method: as §1

large crabgrass = experiment: Test B pre-/postemergence herbicide test; format: in vivo, Digitaria sanguinalis; conditions: for Crabgrass, Large plant response rating: postemergence, scale 0 (no effect) to 100 (complete control)
Summary of the method: (§2)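 Herbicidal effect was judged by eye on a 0–100 scale after plants stood 13 to 15 days in the greenhouse following pre- or postemergence treatment with surfactant-containing formulations.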

blackgrass = experiment: Test B postemergence herbicide test; format: in vivo, Alopecurus myosuroides; conditions: postemergence, visual rating, scale 0 (no effect) to 100 (complete control)
Summary of the method: (§3)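 Each value is a visual 0–100 response rating taken against controls 13 to 15 days after treatment in the greenhouse. Plants received formulated chemical postemergence at the 1- to 4-leaf stage or, in flooded paddy, at the 2-leaf stage.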

corn = experiment: Test B pre-/postemergence herbicide test; format: in vivo, Zea mays; conditions: for Corn plant response rating: postemergence, scale 0 (no effect) to 100 (complete control)
Summary of the method: as §2

barnyardgrass [4] = experiment: Test B pre-/postemergence herbicide test; format: in vivo, Echinochloa crus-galli; conditions: for Barnyardgrass plant response rating: postemergence, scale 0 (no effect) to 100 (complete control)
Summary of the method: (§4)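 Evaluation is visual, comparing treated with control plants on a scale where 0 means no effect and 100 means full control. Treatments were preemergence, or postemergence on seedlings 2–18 cm tall, and held 13–15 days in the greenhouse.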

rice [5] = experiment: Test B pre-/postemergence herbicide test; format: in vivo, Oryza sativa; conditions: 0 = no effect, 100 = complete control, preemergence
Summary of the method: as §2

giant foxtail = experiment: Test B pre-/postemergence herbicide test; format: in vivo, Setaria faberi; conditions: for Foxtail, Giant plant response rating: postemergence, scale 0 (no effect) to 100 (complete control)
Summary of the method: as §2

velvetleaf = experiment: Test B pre-/postemergence herbicide test; format: in vivo, Abutilon theophrasti; conditions: for Velvetleaf plant response rating: postemergence, scale 0 (no effect) to 100 (complete control)
Summary of the method: as §2

rice [6] = experiment: Test B flooded paddy test; format: in vivo, Oryza sativa; conditions: 1000 g ai/ha, visual rating, scale 0 to 100 (0 no effect, 100 complete control), 13 to 15 days
Summary of the method: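 Treated at 2-leaf (paddy) or 1–4-leaf, 2–18 cm (postemergence); greenhouse 13–15 d; visual score vs control, 0 none to 100 complete control; dash = not tested.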

morningglory = experiment: Test B pre-/postemergence herbicide test; format: in vivo, Ipomoea coccinea; conditions: for Morningglory plant response rating: postemergence, scale 0 (no effect) to 100 (complete control)
Summary of the method: as §4

lambsquarters = experiment: Test B pre-/postemergence herbicide test; format: in vivo, Chenopodium album; conditions: for Lambsquarters plant response rating: postemergence, scale 0 (no effect) to 100 (complete control)
Summary of the method: as §2

barnyardgrass [7] = experiment: Test B flooded paddy test; format: in vivo, Echinochloa crus-galli; conditions: 1000 g ai/ha, visual rating, scale 0 to 100 (0 no effect, 100 complete control), 13 to 15 days
Summary of the method: as §3

pigweed = experiment: Test B pre-/postemergence herbicide test; format: in vivo, Amaranthus retroflexus; conditions: for Pigweed plant response rating: postemergence, scale 0 (no effect) to 100 (complete control)
Summary of the method: as §2

cocklebur = experiment: Test B pre-/postemergence herbicide test; format: in vivo, Xanthium strumarium; conditions: for Cocklebur plant response rating: postemergence, scale 0 (no effect) to 100 (complete control)
Summary of the method: as §4

ducksalad [8] = experiment: Test B flooded paddy test; format: in vivo, Heteranthera limosa; conditions: 1000 g ai/ha, visual rating, scale 0 to 100 (0 no effect, 100 complete control), 13 to 15 days
Summary of the method: as §3

Surinam grass = experiment: Test B pre-/postemergence herbicide test; format: in vivo, Urochloa decumbens; conditions: for Surinam Grass plant response rating: postemergence, scale 0 (no effect) to 100 (complete control)
Summary of the method: as §2

ducksalad [9] = experiment: Test C flooded paddy test; format: in vivo, Heteranthera limosa
[10] = tested on: small flower umbrella sedge; experiment: Test B flooded paddy test; format: in vivo, Cyperus difformis; conditions: 1000 g ai/ha, visual rating, scale 0 to 100 (0 no effect, 100 complete control), 13 to 15 days
Summary of the method: as §3

[11] = 62 g ai/ha, scale 0 to 100 (0 no effect, 100 complete control)
[12] = 125 g ai/ha, scale 0 to 100 (0 no effect, 100 complete control)
[13] = 250 g ai/ha, scale of 0 to 100, 0 is no effect, 100 is complete control
[14] = 500 g ai/ha, visual rating after 12 to 14 days, scale 0 to 100 (0 no effect, 100 complete control)
[15] = 125 g ai/ha, 0 = no effect, 100 = complete control, preemergence
[16] = 500 g ai/ha, visual rating, 0 = no effect, 100 = complete control, preemergence

CCc1nc(C(C)(C)C)sc1C(=O)Nc1cccc(C(=O)N(C)C)c1 [Compound 228]
Rice plant response rating (rice [1]; [11]): 75
Rice plant response rating (rice [1]; [12]): 80
Rice plant response rating (rice [1]; [13]): 80
Plant response rating, Rice (rice [1]; [14]): 85
Sedge, Umbrella plant response rating [2, 11]: 80
Sedge, Umbrella plant response rating [2, 12]: 80
Sedge, Umbrella plant response rating [2, 13]: 80
Plant response rating, Sedge, Umbrella [2, 14]: 85
Barnyardgrass plant response rating (barnyardgrass [3]; [11]): 80
Barnyardgrass plant response rating (barnyardgrass [3]; [12]): 85
Barnyardgrass plant response rating (barnyardgrass [3]; [13]): 95
Plant response rating, Barnyardgrass (barnyardgrass [3]; [14]): 95
Oat, Wild plant response rating (wild oat; 125 g ai/ha): 40
Oat, Wild plant response rating (wild oat; 500 g ai/ha): 50
Wheat plant response rating (wheat; 125 g ai/ha): 30
Wheat plant response rating (wheat; 500 g ai/ha): 40
Crabgrass, Large plant response rating (0 to 100 scale) (large crabgrass; [15]): 60
Plant response rating, Crabgrass, Large (large crabgrass; [16]): 100
Crabgrass, Large plant response rating (large crabgrass; 125 g ai/ha, visual rating): 20
Crabgrass, Large plant response rating (large crabgrass; 500 g ai/ha, visual rating): 40
Blackgrass plant response rating (blackgrass; 125 g ai/ha): 30
Blackgrass plant response rating (blackgrass; 500 g ai/ha): 40
Corn plant response rating (0 to 100 scale) (corn; [15]): 60
Plant response rating, Corn (corn; [16]): 80
Corn plant response rating (corn; 125 g ai/ha, visual rating): 10
Corn plant response rating (corn; 500 g ai/ha, visual rating): 30
Barnyardgrass plant response rating (0 to 100 scale) (barnyardgrass [4]; [15]): 80
Plant response rating, Barnyardgrass (barnyardgrass [4]; [16]): 100
Barnyardgrass plant response rating (barnyardgrass [4]; 125 g ai/ha, visual rating): 30
Barnyardgrass plant response rating (barnyardgrass [4]; 500 g ai/ha, visual rating): 70
Rice plant response rating (0 to 100 scale) (rice [5]; 125 g ai/ha): 80
Plant response rating, Rice (rice [5]; 500 g ai/ha, visual rating): 90
Foxtail, Giant plant response rating (0 to 100 scale) (giant foxtail; [15]): 70
Plant response rating, Foxtail, Giant (giant foxtail; [16]): 100
Foxtail, Giant plant response rating (giant foxtail; 125 g ai/ha, visual rating): 30
Foxtail, Giant plant response rating (giant foxtail; 500 g ai/ha, visual rating): 50
Velvetleaf plant response rating (0 to 100 scale) (velvetleaf; [15]): 100
Plant response rating, Velvetleaf (velvetleaf; [16]): 100
Velvetleaf plant response rating (velvetleaf; 125 g ai/ha, visual rating): 60
Velvetleaf plant response rating (velvetleaf; 500 g ai/ha, visual rating): 80
Rice plant response rating (rice [6]): 90
Morningglory plant response rating (0 to 100 scale) (morningglory; [15]): 10
Plant response rating, Morningglory (morningglory; [16]): 40
Morningglory plant response rating (morningglory; 125 g ai/ha, visual rating): 70
Morningglory plant response rating (morningglory; 500 g ai/ha, visual rating): 80
Lambsquarters plant response rating (0 to 100 scale) (lambsquarters; [15]): 100
Plant response rating, Lambsquarters (lambsquarters; [16]): 100
Lambsquarters plant response rating (lambsquarters; 125 g ai/ha, visual rating): 70
Lambsquarters plant response rating (lambsquarters; 500 g ai/ha, visual rating): 80
Barnyardgrass plant response rating (barnyardgrass [7]): 90
Pigweed plant response rating (0 to 100 scale) (pigweed; [15]): 90
Plant response rating, Pigweed (pigweed; [16]): 100
Pigweed plant response rating (pigweed; 125 g ai/ha, visual rating): 50
Pigweed plant response rating (pigweed; 500 g ai/ha, visual rating): 80
Cocklebur plant response rating (0 to 100 scale) (cocklebur; [15]): 30
Plant response rating, Cocklebur (cocklebur; [16]): 80
Cocklebur plant response rating (cocklebur; 125 g ai/ha, visual rating): 30
Cocklebur plant response rating (cocklebur; 500 g ai/ha, visual rating): 80
Ducksalad plant response rating (ducksalad [8]): 90
Surinam Grass plant response rating (0 to 100 scale) (Surinam grass; [15]): 60
Plant response rating, Surinam Grass (Surinam grass; [16]): 100
Surinam Grass plant response rating (Surinam grass; 125 g ai/ha, visual rating): 20
Surinam Grass plant response rating (Surinam grass; 500 g ai/ha, visual rating): 40
Ducksalad plant response rating (ducksalad [9]; [11]): 80
Ducksalad plant response rating (ducksalad [9]; [12]): 85
Ducksalad plant response rating (ducksalad [9]; [13]): 90
Plant response rating, Ducksalad (ducksalad [9]; [14]): 90
Sedge, Umbrella plant response rating [10]: 80
